Test results from patent publication US10857105B2, “Compounds and compositions for intracellular delivery of therapeutic agents” (ModernaTX, Inc., priority 2017, dated 2020).
Entries after “also recorded” stand apart in the source; their conditions may differ.

What was measured:
[1] = tested on: modified luciferase (Luc) mRNA and H10 mRNA; test: Expression after intramuscular administration of formulations including Luc mRNA and H10 mRNA; assay type: in vivo; conditions: 6 hours after intramuscular administration
Protocol: Sample formulations including both modified luciferase (Luc) mRNA and H10 mRNA were prepared and administered intramuscularly and the resulting expression and immunogenicity were evaluated simultaneously. Formulations including compounds according to Formula (I), (IA), (IB), (II), (IIa), (IIb), (IIc), (IId), (IIe), (IIf), (IIg), or (III) were prepared and administered at doses of 0.001 and 0.01 mpk (e.g., doses of 0.0005 mpk of a formulation including Luc mRNA and a formulation including H10 mRNA or doses of 0.005 mpk of a formulation including Luc mRNA and a formulation including H10 mRNA).
The fluxes measured upon intravenous and intramuscular administration are compared in Table 6. Fluxes are presented as fold increase over that measured for MC3 formulations.

hEPO mRNA = test: hEPO expression and cytokine induction after intravenous administration to mice; assay type: in vivo; conditions: for hEPO expression, 3 h / Cytokine expression, IL-6 (6 h) / Cytokine expression, IP-10 (6 h) / hEPO expression, 6 h / hEPO expression, 24 h: intravenous 0.5 mpk
Protocol: FIG. 17 is a graph showing the hEPO mRNA expression in CD1-mice measured 3 h (left block), 6 h (middle block) and 24 h (right block) after intravenous administration of various nanoparticle compositions. Numbers 1-13 refer to compositions containing an mRNA expressing hEPO and the following: 1: Compound 147, 2: Compound 184, 3: Compound 232; 4: Compound 189; 5: Compound 200; 6: Compound 233; 7: Compound 234; 8: Compound 235; 9: Compound 237; 10: Compound 239; 11: Compound 243; 12: MC3; 13: PBS. […]
Sample formulations of nanoparticle compositions including different lipids are generally first evaluated according to Luc expression in vivo. The activity of several such compositions was further evaluated using an mRNA encoding hEPO. Nanoparticle compositions including Compounds 6, 18, 25, 30, 108-112, 60, and 122, or MC3 were prepared according to Example 2.
The expression of hEPO and cytokine induction in mice intravenously administered a nanoparticle composition at a dose of 0.5 mpk were measured at 3, 6, and 24 hours. […] The expression of hEPO in mice intramuscularly administered a nanoparticle composition from Table 1B at a dose of 0.01 mpk were measured at 3, 6, and 24 hours. […] (see
Table 12 compares the nanoparticle compositions including compounds according to Formula (I), (IA), (IB), (II), (IIa), (IIb), (IIc), (IId), (IIe), (IIf), (IIg), or (III) to the compositions including MC3 on the basis of expression and flux levels. […] Thus, these lipids may be useful in nanoparticle composition therapeutics.

CD-1 mouse liver = test: Lipid remaining in mouse liver tissue 24 h post dose (LC-MS/MS); assay type: in vivo; conditions: CD-1 mouse liver 24 h after 0.5 mg/kg bolus dose mRNA, n = 5 ± S.D.
Protocol: LNP administration to animals: mRNA-LNPs diluted in phosphate buffered saline (PBS) were injected intravenously (5 mL/kg) into female CD-1 female mice (18 to 22 g in body weight) and male Sprague-Dawley rats (225-250 g in body weight) via the tail vein using 29 g, 3/10 cc insulin syringes (mice) or 27 g, 1 mL syringes (rats) after gentle warming of the animals using a heat lamp for 3 minutes.
Quantification of Lipid by LC-MS/MS: Liver samples were homogenized following addition of 19 eq. […] Protein was precipitated and analyzed against calibration standards prepared in matching blank. Chromatographic separation and quantification was accomplished with a LC-MS/MS System. Samples were injected and separated via HPLC A triple-quadrupole MS/MS system operated in positive ion mode was used for signal detection.

mouse tissues = test: Lipid clearance from mouse tissues after weekly dosing 0.05 mg/kg mRNA on day 1, 8 and 15; assay type: in vivo
Protocol: Repeat dosing of mRNA in an MC3-based LNP for a therapeutic indication would be expected to lead to accumulation of MC3 in tissues, based on the measured half-life. Therefore it was investigated whether the favorable single dose pharmacokinetics of compound 18 were maintained with weekly dosing. Clearance of MC3 and compound 18 from multiple mouse tissues was measured after dosing 0.05 mg/kg mRNA on day 1, 8 and 15 (FIG. 30A). Following dosing with MC3 LNPs, lipid was detected in liver, spleen, plasma, kidney, heart and lung; with liver and spleen containing the largest concentrations (FIG. 30A, for full panel of tissues see FIG. 35A). […] Compound 18 was also detected in plasma, lung, and kidney, but not in heart (FIG. 35A).

NHP tissues = test: Lipid tissue accumulation in NHP after a single dose; assay type: in vivo, cynomolgus monkey
Protocol: NHP studies: Nonhuman primate studies were conducted using naïve cynomolgus monkeys (cynos), 2-4 years old, weighing 2-6 kg. No treatment randomization or blinding methods were used for any of the animal studies. Sample sizes were determined by the resource equation method. For injection, mRNA-LNPs in phosphate buffered saline (PBS) were administered by 60-minute intravenous infusion using a temporary indwelling catheter inserted in a peripheral vein.
NHP more closely approximates clinical responses for LNP-based systems than rodent (DeRosa, F., Guild, B., Karve, S., Smith, L., Love, K., Dorkin, J R., et. al. Therapeutic efficacy in a hemophilia B model using a biosynthetic mRNA liver depot system. Gene Ther. 2016, 23, 699-707, the contents of which are incorporated herein by reference in their entireties). In order to translate the findings from rodent to the non-human primate (NHP), the lipids were tested in NHP. For this purpose, it was evaluated whether the improved expression observed in mouse and rat with LNPs containing compound 18 could also be achieved in NHP after a single dose. […] A dose of 0.01 mg/kg of hEPO-encoding mRNA was delivered via a 60 minute intravenous infusion. […] A separate study evaluated the lipid tissue accumulation in NHP after a single dose.

CD-1 mice = test: Luciferase expression after intravenous delivery of luciferase mRNA LNPs (bioluminescent imaging); assay type: in vivo; conditions: intravenous 0.5 mg/kg mRNA dose
Protocol: Whole body and ex vivo organ bioluminescent imaging of mice: CD-1 mice were injected 15 minutes prior to the imaging timepoint intraperitoneally (IP) with 200 μL Xenolight D-luciferin K+ salt, diluted in PBS just prior to use to a concentration of 15 mg/mL. Ex vivo imaging of organs was completed, within 25 minutes of luciferin administration. All images were quantified by region of interest for total flux.
[…] […] (See Semple, S.C. et al., Nature Biotech. 2010. 28, 172-176, Jayaraman, M., et al. Angew. Chem. Int. Ed. 2012, 51, 8529-8533, the entire contents of each of which are incorporated by reference herein in their entireties). To evaluate the efficiency of the new amino lipids, LNPs using the novel compounds were tested in vivo in mice using luciferase mRNA as a reporter. An MC3 LNP was included as a control in each experiment, enabling the comparison of LNPs from experiment to experiment. Measured luciferase activity also enabled the determination of protein bio-distribution.

| Compound | Total flux, 0.001 mpk Dose [1] | Total flux, 0.01 mpk Dose [1] | hEPO expression, 3 h (hEPO mRNA; mice) | Cytokine expression, IL-6 (6 h) (hEPO mRNA; mice, 6 h) | Cytokine expression, IP-10 (6 h) (hEPO mRNA; mice, 6 h) | hEPO expression, 6 h (hEPO mRNA; mice, 6 h) | hEPO expression, 24 h (hEPO mRNA; mice) | % dose remaining Mouse liver tissue, 24 h (CD-1 mouse liver) | lipid levels in tissues on weekly dosing (mouse tissues) | lipid residue in tissues at 12 hours post dose (NHP tissues) | further results |
| --- | --- | --- | --- | --- | --- | --- | --- | --- | --- | --- | --- |
| CCCCCC=CCC=CCCCCCCCCC(CCCCCCCCC=CCC=CCCCCC)OC(=O)CCCN(C)C (stereo not shown) [MC3, heptatriaconta-6,9,28,31-tetraen-19-yl 4-(dimethylamino)butanoate, reference compound] | 2.76E+06 p/s | 3.68E+07 p/s | 1.57e+06 pg/mL | 19.85 pg/mL | 117.94 pg/mL | 1.83e+06 pg/mL | 810000 pg/mL | 71 ± 27% | Accumulation of MC3 was observed after each dose | found in multiple tissues | Average hEPO concentration (pg/ml, 6 h) (hEPO mRNA; 6 h): 1.83e+06 pg/mL; Fold increase in hEPO concentration relative to MC3 (hEPO mRNA; Table 12, 6 h): 1 |
| CCCCCCCCCOC(=O)CCCCCCCN(CCO)CCCCCCCC(=O)OC(CCCCCCCC)CCCCCCCC [Compound 18, Heptadecan-9-yl 8-((2-hydroxyethyl)(8-(nonyloxy)-8-oxooctyl)amino)octanoate] |  |  | 3e+06 pg/mL | 10.16 pg/mL | 299.93 pg/mL | 3.38e+06 pg/mL | 1.8e+06 pg/mL | no lipid detected at 24 h | significantly lower levels than MC3 | significantly lower levels | hEPO concentrations compared with MC3 formulations (hEPO mRNA; mice, intravenous, 0.5 mpk, 3, 6 and 24 hours): higher hEPO concentrations than MC3 formulations at each time point |
| Nonyl 8-((6-(heptadecan-9-yloxy)-6-oxohexyl)(2-hydroxyethyl)amino) octanoate [Compound 27] | 2.55E+06 p/s | 3.17E+07 p/s |  |  |  |  |  |  |  |  |  |
| CCCCCCCCCOC(=O)CCCN(CCO)CCCCCCCC(=O)OC(CCCCCCCC)CCCCCCCC [Compound 26, Heptadecan-9-yl 8-((2-hydroxyethyl)(4-(nonyloxy)-4-oxobutyl)amino) octanoate] |  |  |  |  |  |  |  |  |  |  | luciferase activity/expression compared to MC3 LNP control (words) (CD-1 mice; 0.5 mg/kg): higher expression compared to MC3; also recorded: highest luciferase activity of the series |
| CCCCCCCCCCCOC(=O)CCCCCN(CCO)CCCCCCCC(=O)OC(CCCCCCCC)CCCCCCCC [Compound 25, Heptadecan-9-yl 8-((2-hydroxyethyl)(6-oxo-6-(undecyloxy)hexyl)amino)octanoate] |  |  |  |  |  |  |  |  |  |  | luciferase activity/expression compared to MC3 LNP control (words) (CD-1 mice): higher expression compared to MC3 |
